Results as given in patent US20260284002A1, “COMPOSITIONS AND METHODS OF CONTROLLING MAMMALIAN SATIETY” (VitaKey Inc., priority 2023, published 2026).

Test: Release of linoleic acid in simulated intestinal fluid with 0.2% (w/v) sodium taurocholate
Format: physicochemical
Details: simulated intestinal fluid 37° C. with 0.2% (w/v) sodium taurocholate; FIG. 25B
Procedure: A mixture of 40% (w/w) linoleic acid, 30% (w/w) 27-Stearine, and 30% (w/w) CITREM was heated to 80° C. while stirring to allow for complete mixing, followed by cooling at 4° C. for 1 hour. […] Formulated linoleic acid microparticles were added to 3 of these 6 tubes, while unformulated linoleic acid was added to the remaining 3 tubes.

**Q.** With CCCCC/C=C\C/C=C\CCCCCCCC(=O)O [unformulated linoleic acid, linoleic acid] as the molecule, how does the “emulsification in bile-salt rich simulated intestinal fluid” value read?
**A.** The value was “rapidly emulsified”.
